These results are taken from patent publication US20120264735A1 (priority 2009, published 2012).

Usually IC50 stands for the concentration that inhibits the measured activity by half.

T1 sequence (P08581 25-1390): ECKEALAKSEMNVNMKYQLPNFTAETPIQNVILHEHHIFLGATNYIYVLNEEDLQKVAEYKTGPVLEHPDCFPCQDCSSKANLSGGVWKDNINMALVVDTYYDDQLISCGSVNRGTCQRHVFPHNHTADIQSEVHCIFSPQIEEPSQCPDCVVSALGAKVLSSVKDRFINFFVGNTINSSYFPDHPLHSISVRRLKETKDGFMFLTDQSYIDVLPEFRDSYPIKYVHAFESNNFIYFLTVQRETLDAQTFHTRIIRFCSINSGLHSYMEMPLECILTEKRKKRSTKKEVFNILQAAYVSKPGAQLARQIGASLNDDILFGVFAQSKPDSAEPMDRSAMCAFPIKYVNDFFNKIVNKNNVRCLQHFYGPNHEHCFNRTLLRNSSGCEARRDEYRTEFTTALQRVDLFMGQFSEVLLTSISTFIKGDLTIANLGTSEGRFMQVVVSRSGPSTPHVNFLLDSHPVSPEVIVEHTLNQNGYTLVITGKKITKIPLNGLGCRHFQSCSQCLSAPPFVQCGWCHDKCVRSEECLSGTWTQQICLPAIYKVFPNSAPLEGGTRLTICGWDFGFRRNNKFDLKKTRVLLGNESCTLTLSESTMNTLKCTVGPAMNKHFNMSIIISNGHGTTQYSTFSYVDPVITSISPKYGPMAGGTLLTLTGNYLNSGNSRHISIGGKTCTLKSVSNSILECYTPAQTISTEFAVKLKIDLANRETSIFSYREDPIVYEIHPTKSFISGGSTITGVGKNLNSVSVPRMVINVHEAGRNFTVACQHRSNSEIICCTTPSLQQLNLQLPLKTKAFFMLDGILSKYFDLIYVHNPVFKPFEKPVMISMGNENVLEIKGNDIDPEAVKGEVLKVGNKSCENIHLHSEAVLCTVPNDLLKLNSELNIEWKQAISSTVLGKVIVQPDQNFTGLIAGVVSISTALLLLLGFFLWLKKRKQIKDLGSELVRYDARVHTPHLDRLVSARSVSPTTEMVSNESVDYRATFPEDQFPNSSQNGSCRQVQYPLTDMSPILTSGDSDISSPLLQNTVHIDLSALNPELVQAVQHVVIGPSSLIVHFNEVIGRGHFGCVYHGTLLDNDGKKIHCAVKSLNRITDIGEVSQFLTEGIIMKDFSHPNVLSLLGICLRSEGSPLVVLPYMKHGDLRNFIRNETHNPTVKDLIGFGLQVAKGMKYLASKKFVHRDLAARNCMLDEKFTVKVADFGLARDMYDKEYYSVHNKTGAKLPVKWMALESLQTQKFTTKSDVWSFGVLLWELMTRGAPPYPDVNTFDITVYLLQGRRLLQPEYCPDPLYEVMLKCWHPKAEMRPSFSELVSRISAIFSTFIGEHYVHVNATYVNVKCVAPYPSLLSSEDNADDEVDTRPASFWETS

The assay has as its target T1, c-Met kinase (recombinant c-Met) (Homo sapiens, UniProt P08581).
T1 construct: 0.27 nM recombinant c-Met
Briefly: In vitro kinase assay I (homogeneous time-resolved fluorescence tyrosine kinase assay). It is filed as biochemical. The method, boiled down: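 Biotinylated peptide (0.5 μM) phosphorylated by 0.2 nM recombinant c-Met with 50 μM MgATP, 60 min at room temperature, pH 7.4, 5% DMSO. EDTA stop; HTRF read with Eu-anti-phosphotyrosine antibody and streptavidin-APC. IC50 from 4-parameter logistic fit.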
Consider `O=C(Nc1cccc(Cc2nn(-c3cc(F)c(F)c(F)c3)ccc2=O)c1)OCCN1CCS(=O)(=O)CC1` [Example 515, 2-(1,1-dioxidothio-morpholin-4-yl)ethyl (3-{[4-oxo-1-(3,4,5-trifluorophenyl)-1,4-dihydropyridazin-3-yl]methyl}phenyl)carbamate], for which the concentration for half-maximal inhibition (IC50) is < 100 nM.
For `CN1CCN(CCOC(=O)Nc2cccc(Cc3nn(-c4cc(F)c(F)c(F)c4)ccc3=O)c2)CC1` [Example 516, 2-(4-methylpiperazin-1-yl)ethyl (3-{[4-oxo-1-(3,4,5-trifluorophenyl)-1,4-dihydropyridazin-3-yl]methyl}phenyl)carbamate] the value was < 100 nM; for `O=C(Nc1cccc(Cc2nn(-c3cc(F)cc(F)c3)ccc2=O)c1)OCCN1CCS(=O)(=O)CC1` [Example 517, 2-(1,1-dioxidothio-morpholin-4-yl)ethyl (3-{[1-(3,5-difluorophenyl)-4-oxo-1,4-dihydropyridazin-3-yl]methyl}phenyl)carbamate], < 100 nM; for `CN1CCN(CCCOC(=O)Nc2cccc(Cc3nn(-c4cc(F)cc(F)c4)ccc3=O)c2)CC1` [Example 518], < 100 nM.
The value for `CN1CCN(CCOC(=O)Nc2cccc(Cc3nn(-c4cc(F)cc(F)c4)ccc3=O)c2)CC1` [Example 519, 2-(4-methylpiperazin-1-yl)ethyl (3-{[1-(3,5-difluorophenyl)-4-oxo-1,4-dihydropyridazin-3-yl]methyl}phenyl)carbamate] was < 100 nM; that for `O=C(Nc1cccc(Cc2nn(-c3cc(F)cc(F)c3)ccc2=O)c1)OCCCN1CCOCC1` [Example 521, 3-morpholin-4-ylpropyl (3-{[1-(3,5-difluorophenyl)-4-oxo-1,4-dihydropyridazin-3-yl]methyl}phenyl)carbamate] was < 100 nM; that for `O=C(Nc1cccc(Cc2nn(-c3cc(F)cc(F)c3)ccc2=O)c1)OCCCN1CCS(=O)(=O)CC1` [Example 522, 3-(1,1-dioxidothio-morpholin-4-yl)propyl (3-{[1-(3,5-difluorophenyl)-4-oxo-1,4-dihydropyridazin-3-yl]methyl}phenyl)carbamate] was < 100 nM.
As for `O=C(Nc1cccc(Cc2nn(-c3cc(F)cc(F)c3)ccc2=O)c1)OCCN1CCOCC1` [Example 523, 2-morpholin-4-ylethyl (3-{[1-(3,5-difluorophenyl)-4-oxo-1,4-dihydropyridazin-3-yl]methyl}phenyl)carbamate], the IC50 is < 100 nM.
`Cn1cc(-n2ccc(=O)c(Cc3cccc(NC(=O)OCCN4CCC(F)(F)C4)c3)n2)cn1` [Example 524, 2-(3,3-difluoropyrrolidin-1-yl)ethyl (3-{[1-(1-methyl-1H-pyrazol-4-yl)-4-oxo-1,4-dihydropyridazin-3-yl]methyl}phenyl)carbamate]: the concentration for half-maximal inhibition (IC50) is < 100 nM.
The value for `Cn1cc(-n2ccc(=O)c(Cc3cccc(NC(=O)OCC(F)(F)CN4CCOCC4)c3)n2)cn1` [Example 525, 2,2-difluoro-3-morpholin-4-ylpropyl (3-{[1-(1-methyl-1H-pyrazol-4-yl)-4-oxo-1,4-dihydropyridazin-3-yl]methyl}phenyl)carbamate] was < 100 nM.
The value for `Cn1cc(-n2ccc(=O)c(Cc3cccc(NC(=O)OCCC(C)(C)O)c3)n2)cn1` [Example 526, 3-hydroxy-3-methylbutyl (3-{[1-(1-methyl-1H-pyrazol-4-yl)-4-oxo-1,4-dihydropyridazin-3-yl]methyl}phenyl)carbamate] was < 100 nM; that for `O=C(Nc1cccc(Cc2nn(-c3ccc(F)c(F)c3)ccc2=O)c1)OCC1CCOCC1` [Example 527, tetrahydro-2H-pyran-4-ylmethyl (3-{[1-(3,4-difluorophenyl)-4-oxo-1,4-dihydropyridazin-3-yl]methyl}phenyl)carbamate] was < 100 nM; that for `O=C(Nc1cccc(Cc2nn(-c3ccc(F)c(F)c3)ccc2=O)c1)OCCN1CCS(=O)(=O)CC1` [Example 528, 2-(1,1-dioxidothio-morpholin-4-yl)ethyl-(3-{[1-(3,4-difluorophenyl)-4-oxo-1,4-dihydropyridazin-3-yl]methyl}phenyl)carbamate] was < 100 nM.
The value for `O=C1CN(CCOC(=O)Nc2cccc(Cc3nn(-c4ccc(F)c(F)c4)ccc3=O)c2)CCN1` [Example 529, 2-(3-oxopiperazin-1-yl)ethyl (3-{[1-(3,4-difluorophenyl)-4-oxo-1,4-dihydropyridazin-3-yl]methyl}phenyl)carbamate] was < 100 nM; that for `CN1CCN(CCOC(=O)Nc2cccc(Cc3nn(-c4cnn(C)c4)ccc3=O)c2)CC1` [Example 530, 2-(4-methylpiperazin-1-yl)ethyl (3-{[1-(1-methyl-1H-pyrazol-4-yl)-4-oxo-1,4-dihydropyridazin-3-yl]methyl}phenyl)carbamate] was < 100 nM; that for `Cn1cc(-n2ccc(=O)c(Cc3cccc(NC(=O)OCCN4CCOCC4)c3)n2)cn1` [Example 531] was < 100 nM.
For `Cn1cc(-n2ccc(=O)c(Cc3cccc(NC(=O)OCCN4CCCC4=O)c3)n2)cn1` [Example 533, 2-(2-oxopyrrolidin-1-yl)ethyl (3-{[1-(1-methyl-1H-pyrazol-4-yl)-4-oxo-1,4-dihydropyridazin-3-yl]methyl}phenyl)carbamate], the IC50 was < 100 nM.
The value for `Cn1cc(-n2ccc(=O)c(Cc3cccc(NC(=O)OCCn4cncn4)c3)n2)cn1` [Example 534, 2-(1H-1,2,4-triazol-1-yl)ethyl (3-{[1-(1-methyl-1H-pyrazol-4-yl)-4-oxo-1,4-dihydropyridazin-3-yl]methyl}phenyl)carbamate] was < 100 nM; that for `Cn1cc(-n2ccc(=O)c(Cc3cccc(NC(=O)OCCN4CCOCC4=O)c3)n2)cn1` [Example 535, 2-(3-oxomorpholin-4-yl)ethyl (3-{[1-(1-methyl-1H-pyrazol-4-yl)-4-oxo-1,4-dihydropyridazin-3-yl]methyl}phenyl)carbamate] was < 100 nM.
The value for `CN1CCN(CCCOC(=O)Nc2cccc(Cc3nn(-c4cnn(C)c4)ccc3=O)c2)CC1` [Example 536, 3-(4-methylpiperazin-1-yl)propyl-(3-{[1-(1-methyl-1H-pyrazol-4-yl)-4-oxo-1,4-dihydropyridazin-3-yl]methyl}phenyl)carbamate] was < 100 nM; that for `Cn1cc(-n2ccc(=O)c(Cc3cccc(NC(=O)OCCCN4CCOCC4)c3)n2)cn1` [Example 537, 3-morpholin-4-ylpropyl (3-{[1-(1-methyl-1H-pyrazol-4-yl)-4-oxo-1,4-dihydropyridazin-3-yl]methyl}phenyl)carbamate] was < 100 nM.
The value for `Cn1cc(-n2ccc(=O)c(Cc3cccc(NC(=O)OCC4CCC4)c3)n2)cn1` [Example 538, cyclobutylmethyl (3-{[1-(1-methyl-1H-pyrazol-4-yl)-4-oxo-1,4-dihydropyridazin-3-yl]methyl}phenyl)carbamate] was < 100 nM.
`Cn1cc(-n2ccc(=O)c(Cc3cccc(NC(=O)OCC4CCCC4)c3)n2)cn1` [Example 539, cyclopentylmethyl (3-{[1-(1-methyl-1H-pyrazol-4-yl)-4-oxo-1,4-dihydropyridazin-3-yl]methyl}phenyl)carbamate]: the IC50 was < 100 nM.
The value for `Cn1cc(-n2ccc(=O)c(Cc3cccc(NC(=O)OCC4CCCCC4)c3)n2)cn1` [Example 540, cyclohexylmethyl (3-{[1-(1-methyl-1H-pyrazol-4-yl)-4-oxo-1,4-dihydropyridazin-3-yl]methyl}phenyl)carbamate] was < 100 nM.
The value for `Cn1cc(-n2ccc(=O)c(Cc3cccc(NC(=O)OCC4CCOCC4)c3)n2)cn1` [Example 541, tetrahydro-2H-pyran-4-ylmethyl (3-{[1-(1-methyl-1H-pyrazol-4-yl)-4-oxo-1,4-dihydropyridazin-3-yl]methyl}phenyl)carbamate] was < 100 nM.
For `Cn1cc(-n2ccc(=O)c(Cc3cccc(NC(=O)OCC4(C)COC4)c3)n2)cn1` [Example 543, (3-methyloxetan-3-yl)methyl (3-{[1-(1-methyl-1H-pyrazol-4-yl)-4-oxo-1,4-dihydropyridazin-3-yl]methyl}phenyl)carbamate] the value was < 100 nM; for `Cn1cc(-n2ccc(=O)c(Cc3cccc(NC(=O)OCC(F)(F)F)c3)n2)cn1` [Example 544, 2,2,2-trifluoroethyl (3-{[1-(1-methyl-1H-pyrazol-4-yl)-4-oxo-1,4-dihydropyridazin-3-yl]methyl}phenyl)carbamate], < 100 nM; for `CN(C)C(=O)CCOC(=O)Nc1cccc(Cc2nn(-c3cnn(C)c3)ccc2=O)c1` [Example 545, 3-(dimethylamino)-3-oxopropyl (3-{[1-(1-methyl-1H-pyrazol-4-yl)-4-oxo-1,4-dihydropyridazin-3-yl]methyl}phenyl)carbamate], < 100 nM.
Consider `CN(C)CCOC(=O)Nc1cccc(Cc2nn(-c3cc(F)c(F)c(F)c3)ccc2=O)c1` [Example 546, 2-(dimethylamino)ethyl (3-{[4-oxo-1-(3,4,5-trifluorophenyl)-1,4-dihydropyridazin-3-yl]methyl}phenyl)carbamate], for which the 50% inhibitory concentration (IC50) was < 100 nM.
For `O=C(Nc1cccc(Cc2nn(-c3cc(F)c(F)c(F)c3)ccc2=O)c1)OCCn1ccnc1` [Example 547, 2-(1H-imidazol-1-yl)ethyl (3-{[4-oxo-1-(3,4,5-trifluorophenyl)-1,4-dihydropyridazin-3-yl]methyl}phenyl)carbamate] the value was < 100 nM; for `O=C(Nc1cccc(Cc2nn(-c3cc(F)c(F)c(F)c3)ccc2=O)c1)OCCCn1cccc1` [Example 548, 3-(1H-pyrrol-1-yl)propyl (3-{[4-oxo-1-(3,4,5-trifluorophenyl)-1,4-dihydropyridazin-3-yl]methyl}phenyl)carbamate], < 100 nM; for `O=C(Nc1cccc(Cc2nn(-c3cc(F)c(F)c(F)c3)ccc2=O)c1)OCCN1CCCC1=O` [Example 549, 2-(2-oxopyrrolidin-1-yl)ethyl (3-{[4-oxo-1-(3,4,5-trifluorophenyl)-1,4-dihydropyridazin-3-yl]methyl}phenyl)carbamate], < 100 nM.
